Our source for the activity coefficient values is the NIST ThermoML archive (doi:10.1021/je100529s).

± gives the expanded uncertainty stated by the source.

The nature of this data set: activity coefficient (dimensionless); of the first substance listed, at infinite dilution; xn = mol fraction of the nth substance listed. The conditions noted are these: Liquid, Gas Stripping Method, x1 = 0.

Regarding `CC(F)F` [1,1-difluoroethane] + Cc1ccc(O)cc1, the activity coefficient runs as follows: (309.99 K) 4.46 ± 0.27; (319.99 K) 4.26 ± 0.26; (329.99 K) 4.07 ± 0.24; (340.02 K) 3.88 ± 0.23.

On to `CC(F)F` [1,1-difluoroethane] + Cc1cccc(O)c1, for which the activity coefficient is, setting by setting: (289.98 K) 4.79 ± 0.29; (299.98 K) 4.59 ± 0.28; (309.99 K) 4.37 ± 0.26; (319.99 K) 4.16 ± 0.25; (329.99 K) 3.98 ± 0.24.

As for `CC(F)F` [1,1-difluoroethane] + Cc1ccccc1O, the activity coefficient runs as follows: (299.99 K) 4.02 ± 0.24; (309.99 K) 3.84 ± 0.23; (319.99 K) 3.67 ± 0.22; (329.99 K) 3.49 ± 0.21.

Regarding `C=CC=C` [1,3-butadiene] + Cc1ccc(O)cc1, the activity coefficient by setting is: (309.99 K) 3.26 ± 0.2; (319.99 K) 3.16 ± 0.19; (329.99 K) 3.07 ± 0.18; (340.02 K) 2.99 ± 0.18.

Turning to `C=CC=C` [1,3-butadiene] + Cc1cccc(O)c1, the activity coefficient is, setting by setting: (289.98 K) 3.32 ± 0.2; (299.98 K) 3.26 ± 0.2; (309.99 K) 3.22 ± 0.19; (319.99 K) 3.13 ± 0.19; (329.99 K) 3.05 ± 0.18.

For the molecule `C=CC=C` [1,3-butadiene] + Cc1ccccc1O, the activity coefficient reads like this: (299.99 K) 2.87 ± 0.17; (309.99 K) 2.81 ± 0.17; (319.99 K) 2.72 ± 0.16; (329.99 K) 2.63 ± 0.16.

Take `C=CCC` [1-butene] + Cc1ccc(O)cc1: the activity coefficient runs as follows: (309.99 K) 4.66 ± 0.28; (319.99 K) 4.55 ± 0.27; (329.99 K) 4.4 ± 0.26; (340.02 K) 4.26 ± 0.26.

As to `C=CCC` [1-butene] + Cc1cccc(O)c1, the activity coefficient runs as follows: (289.98 K) 4.86 ± 0.29; (299.98 K) 4.75 ± 0.29; (309.99 K) 4.62 ± 0.28; (319.99 K) 4.48 ± 0.27; (329.99 K) 4.36 ± 0.26.

With `C=CCC` [1-butene] + Cc1ccccc1O, the activity coefficient (299.99 K) was found to be 4.29 ± 0.26, the activity coefficient (309.99 K) was found to be 4.15 ± 0.25, the activity coefficient (319.99 K) was found to be 4.03 ± 0.24 and the activity coefficient (329.99 K) was determined as 3.87 ± 0.23.

In the case of `CC(C)C` [2-methylpropane] + Cc1ccc(O)cc1, the activity coefficient by setting is: (309.99 K) 7.93 ± 0.48; (319.99 K) 7.62 ± 0.46; (329.99 K) 7.3 ± 0.44; (340.02 K) 7.03 ± 0.42.

Consider `CC(C)C` [2-methylpropane] + Cc1cccc(O)c1, for which the activity coefficient reads like this: (289.98 K) 8.35 ± 0.5; (299.98 K) 8.11 ± 0.49; (309.99 K) 7.87 ± 0.47; (319.99 K) 7.54 ± 0.45; (329.99 K) 7.21 ± 0.43.

For `CC(C)C` [2-methylpropane] + Cc1ccccc1O, the activity coefficient reads like this: (299.99 K) 7.92 ± 0.48; (309.99 K) 7.57 ± 0.45; (319.99 K) 7.14 ± 0.43; (329.99 K) 6.73 ± 0.4.

Turning to `C=C(C)C` [2-methylpropene] + Cc1ccc(O)cc1, the activity coefficient is, setting by setting: (309.99 K) 4.44 ± 0.27; (319.99 K) 4.34 ± 0.26; (329.99 K) 4.2 ± 0.25; (340.02 K) 4.07 ± 0.24.

Regarding `C=C(C)C` [2-methylpropene] + Cc1cccc(O)c1, the activity coefficient stood at 4.66 ± 0.28 (289.98 K); 4.56 ± 0.27 (299.98 K); 4.42 ± 0.27 (309.99 K); 4.3 ± 0.26 (319.99 K); 4.16 ± 0.25 (329.99 K).

Take `C=C(C)C` [2-methylpropene] + Cc1ccccc1O: the activity coefficient worked out at 4.11 ± 0.25 (299.99 K), 3.98 ± 0.24 (309.99 K), 3.84 ± 0.23 (319.99 K) and 3.7 ± 0.22 (329.99 K).

With `C/C=C/C` [(E)-2-butene] + Cc1ccc(O)cc1, the activity coefficient by setting is: (309.99 K) 4.48 ± 0.27; (319.99 K) 4.35 ± 0.26; (329.99 K) 4.25 ± 0.26; (340.02 K) 4.14 ± 0.25.

For the molecule `C/C=C/C` [(E)-2-butene] + Cc1cccc(O)c1, the activity coefficient turned out to be 4.68 ± 0.28 (289.98 K); 4.57 ± 0.27 (299.98 K); 4.49 ± 0.27 (309.99 K); 4.35 ± 0.26 (319.99 K); 4.23 ± 0.25 (329.99 K).

With `C/C=C/C` [(E)-2-butene] + Cc1ccccc1O, the activity coefficient came out at 4.25 ± 0.26 (299.99 K), 4.13 ± 0.25 (309.99 K), 3.98 ± 0.24 (319.99 K) and 3.82 ± 0.23 (329.99 K).

Turning to `C/C=C\C` [(Z)-2-butene] + Cc1ccc(O)cc1, the activity coefficient (309.99 K) turned out to be 4.12 ± 0.25, the activity coefficient (319.99 K) worked out at 4.03 ± 0.24, the activity coefficient (329.99 K) amounted to 3.91 ± 0.23 and the activity coefficient (340.02 K) worked out at 3.8 ± 0.23.

As to `C/C=C\C` [(Z)-2-butene] + Cc1cccc(O)c1, the activity coefficient was 4.29 ± 0.26 (289.98 K); 4.2 ± 0.25 (299.98 K); 4.09 ± 0.25 (309.99 K); 3.99 ± 0.24 (319.99 K); 3.88 ± 0.23 (329.99 K).

Turning to `C/C=C\C` [(Z)-2-butene] + Cc1ccccc1O, the activity coefficient was 3.79 ± 0.23 (299.99 K), 3.69 ± 0.22 (309.99 K), 3.57 ± 0.21 (319.99 K) and 3.44 ± 0.21 (329.99 K).

With `CCCC` [butane] + Cc1ccc(O)cc1, the activity coefficient (309.99 K) stood at 6.88 ± 0.41, the activity coefficient (319.99 K) turned out to be 6.62 ± 0.4, the activity coefficient (329.99 K) worked out at 6.32 ± 0.38 and the activity coefficient (340.02 K) was 6.09 ± 0.37.

Turning to `CCCC` [butane] + Cc1cccc(O)c1, the activity coefficient is 7.22 ± 0.43 (289.98 K); 7.06 ± 0.42 (299.98 K); 6.88 ± 0.41 (309.99 K); 6.6 ± 0.4 (319.99 K); 6.33 ± 0.38 (329.99 K).

Regarding `CCCC` [butane] + Cc1ccccc1O, the activity coefficient runs as follows: (299.99 K) 6.92 ± 0.42; (309.99 K) 6.61 ± 0.4; (319.99 K) 6.26 ± 0.38; (329.99 K) 5.92 ± 0.36.

Take `CCCl` [chloroethane] + Cc1ccc(O)cc1: the activity coefficient (309.98 K) was 2.09 ± 0.13, the activity coefficient (319.98 K) turned out to be 2.06 ± 0.12, the activity coefficient (329.99 K) was found to be 1.98 ± 0.12 and the activity coefficient (340.01 K) was 1.93 ± 0.12.

`CCCl` [chloroethane] + Cc1cccc(O)c1: the activity coefficient is 2.13 ± 0.13 (289.97 K); 2.1 ± 0.13 (299.98 K); 2.05 ± 0.12 (309.98 K); 1.99 ± 0.12 (319.99 K); 1.93 ± 0.12 (329.99 K).

With `CCCl` [chloroethane] + Cc1ccccc1O, the activity coefficient amounted to 1.83 ± 0.11 (299.99 K), 1.77 ± 0.11 (309.98 K), 1.76 ± 0.11 (319.98 K) and 1.7 ± 0.1 (329.99 K).

In the case of `COC` [dimethyl ether] + Cc1ccc(O)cc1, the activity coefficient (309.98 K) was 0.16 ± 0.01, the activity coefficient (319.98 K) worked out at 0.19 ± 0.01, the activity coefficient (329.99 K) amounted to 0.21 ± 0.01 and the activity coefficient (340.01 K) is 0.24 ± 0.02.

As to `COC` [dimethyl ether] + Cc1cccc(O)c1, the activity coefficient by setting is: (289.97 K) 0.11 ± 0.01; (299.98 K) 0.13 ± 0.01; (309.98 K) 0.15 ± 0.01; (319.99 K) 0.18 ± 0.01; (329.99 K) 0.2 ± 0.01.

For the molecule `COC` [dimethyl ether] + Cc1ccccc1O, the activity coefficient was determined as 0.1 ± 0.01 (299.99 K), 0.12 ± 0.01 (309.98 K), 0.14 ± 0.01 (319.98 K) and 0.18 ± 0.01 (329.99 K).

Turning to `CCC` [propane] + Cc1ccc(O)cc1, the activity coefficient runs as follows: (309.99 K) 6.29 ± 0.38; (319.99 K) 6.12 ± 0.37; (329.99 K) 5.93 ± 0.36; (340.02 K) 5.74 ± 0.34.

Regarding `CCC` [propane] + Cc1cccc(O)c1, the activity coefficient was determined as 6.31 ± 0.38 (289.98 K); 6.36 ± 0.38 (299.98 K); 6.24 ± 0.37 (309.99 K); 6.06 ± 0.36 (319.99 K); 5.88 ± 0.35 (329.99 K).

Regarding `CCC` [propane] + Cc1ccccc1O, the activity coefficient (299.99 K) amounted to 6.34 ± 0.38, the activity coefficient (309.99 K) was 6.04 ± 0.36, the activity coefficient (319.99 K) was found to be 5.83 ± 0.35 and the activity coefficient (329.99 K) is 5.58 ± 0.33.

As for `C=CC` [propene] + Cc1ccc(O)cc1, the activity coefficient reads like this: (309.99 K) 4.07 ± 0.24; (319.99 K) 4.02 ± 0.24; (329.99 K) 3.92 ± 0.24; (340.02 K) 3.84 ± 0.23.

For the molecule `C=CC` [propene] + Cc1cccc(O)c1, the activity coefficient reads like this: (289.98 K) 4.1 ± 0.25; (299.98 K) 4.13 ± 0.25; (309.99 K) 4.05 ± 0.24; (319.99 K) 3.97 ± 0.24; (329.99 K) 3.88 ± 0.23.

On to `C=CC` [propene] + Cc1ccccc1O, for which the activity coefficient runs as follows: (299.99 K) 3.81 ± 0.23; (309.99 K) 3.71 ± 0.22; (319.99 K) 3.6 ± 0.22; (329.99 K) 3.48 ± 0.21.
